Source: US9586986B2, “Substituted 7-deazapurine ribonucleosides for therapeutic uses” (Institute of Organic Chemistry and Biochemistry ASCR, v.v.i., priority 2014, dated 2017)
Like-named read-outs stand apart in the source and are kept apart here.

Legend:
[1] = system: HepG2; test: XTT cytotoxicity assay, HepG2; assay type: cell-based; conditions: Homo sapiens, read-out: XTT, IC50 HepG2
Procedure: (§1) HL-60, Hela S3 and HepG2 cell lines (ATCC) were grown in RPMI-1640 or DMEM medium supplemented with 10% fetal calf serum, […] of streptomycin, 200 U/mL of penicillin G and 4 mM glutamine in a humidified atmosphere containing 5% CO2 at 37° C. Sensitivity of these cell lines to the synthesized compounds was assessed with the use of XTT cell proliferation kit II (Roche Diagnostics GmbH, Mannheim, Germany) according to the manufacturer's instructions. Briefly, cells were seeded in a 96-well plate at a density of 10,000 cells per well (90 μL). After 24 h, 10 μL of the tested compounds were added to the culture media at desired concentration range and incubated for 72 h. After that 50 μL of the XTT solution was added (1 mg/mL XTT+0.383 mg/mL N-methyl dibenzopyrazine methyl sulfate). The absorbance was recorded at 495 nm following a 2 h-incubation with the dye. IC50 values were determined by non-linear regression method using GraphPad Prism version 5.00 for Windows (GraphPad Software, La Jolla, Calif., USA).

[2] = system: HL60; test: XTT cytotoxicity assay, HL-60; assay type: cell-based; conditions: Homo sapiens, read-out: XTT, IC50 HL60
Procedure: as §1
In addition, the anti-proliferative effect was tested against a human T-lymphoblastic leukemia line CCRF-CEM, promyelocytic leukemia HL-60 and cervical carcinoma HeLa S3 growing in liquid suspension. Cell viability was determined following a 3-day incubation using 2,3-bis-(2-methoxy-4-nitro-5-sulfophenyl)-2H-tetrazolium-5-carboxanilide (XTT) assay (ref.: Scudiero, D. A.; Shoemaker, R. H.; Paull, K. D.; Monks, A.; Tierney, S.; Nofziger, T. H.; Currens, M. J.; Seniff, D.; Boyd M. R. Evaluation of a Soluble Tetrazolium/Formazan Assay for Cell Growth and Drug Sensitivity in Culture Using Human and Other Tumor Cell Lines. Cancer Res. 1988, 48, 4827-4833).

SMILES	IC50 ([1]; HepG2, 72 h incubation) [µM]	melting point [°C]	IC50 ([2]; HL-60, 72 h incubation) [µM]	IC50 ([1]; HepG2, 72 h) [µM]	IC50 ([2]; HL-60, 72 h) [µM]
Cc1ncnc2c1c(-c1cccs1)cn2[C@@H]1O[C@H](CO)[C@@H](O)[C@H]1O [Compound 5c, 4-Methyl-7-(β-D-ribofuranosyl)-5-(thiophen-2-yl)-7H-pyrrolo[2,3-d]pyrimidine]	> 15	110 to 111	5.73	–	–
C#Cc1cn([C@@H]2O[C@H](CO)[C@@H](O)[C@H]2O)c2ncnc(C)c12 [Compound 5g, 5-Ethynyl-4-methyl-7-(β-D-ribofuranosyl)-7H-pyrrolo[2,3-d]pyrimidine]	0.29	–	1.11	–	–
CNc1ncnc2c1c(-c1ccsc1)cn2[C@@H]1O[C@H](CO)[C@@H](O)[C@H]1O [Compound 3d, 4-Methylamino-7-(β-D-ribofuranosyl)-5-(thiophen-3-yl)-7H-pyrrolo[2,3-d]pyrimidine]	> 20	135 to 138	> 20	–	–
CSc1ncnc2c1c(-c1ccoc1)cn2[C@@H]1O[C@H](CO)[C@@H](O)[C@H]1O [Compound 2b, 5-(Furan-3-yl)-4-methylsulfanyl-7-(β-D-ribofuranosyl)-7H-pyrrolo[2,3-d]pyrimidine]	> 15	121 to 124	0.36	–	–
COc1ncnc2c1c(-c1cc3ccccc3o1)cn2[C@@H]1O[C@H](CO)[C@@H](O)[C@H]1O [Compound 1f, 5-(Benzofuran-2-yl)-4-methoxy-7-(β-D-ribofuranosyl)-7H-pyrrolo[2,3-d]pyrimidine]	> 20	–	4.47	–	–
CNc1ncnc2c1c(-c1cccs1)cn2[C@@H]1O[C@H](CO)[C@@H](O)[C@H]1O [Compound 3c, 4-Methylamino-7-(β-D-ribofuranosyl)-5-(thiophen-2-yl)-7H-pyrrolo[2,3-d]pyrimidine]	> 20	183 to 185	> 20	–	–
CNc1ncnc2c1ccn2[C@@H]1O[C@H](CO)[C@@H](O)[C@H]1O [RC3, reference compound]	> 20	–	12.8	–	–
CSc1ncnc2c1c(-c1cccs1)cn2[C@@H]1O[C@H](CO)[C@@H](O)[C@H]1O [Compound 2c, 4-Methylsulfanyl-7-(β-D-ribofuranosyl)-5-(thiophen-2-yl)-7H-pyrrolo[2,3-d]pyrimidine]	> 20	–	1.13	–	–
CN(C)c1ncnc2c1c(-c1ccccc1)cn2[C@@H]1O[C@H](CO)[C@@H](O)[C@H]1O [Compound 4e, 4-Dimethylamino-5-phenyl-7-(β-D-ribofuranosyl)-7H-pyrrolo[2,3-d]pyrimidine]	> 20	–	> 20	–	–
CNc1ncnc2c1c(-c1ccoc1)cn2[C@@H]1O[C@H](CO)[C@@H](O)[C@H]1O [Compound 3b, 5-(Furan-3-yl)-4-methylamino-7-(β-D-ribofuranosyl)-7H-pyrrolo[2,3-d]pyrimidine]	> 20	90 to 97	> 15	–	–
C#Cc1cn([C@@H]2O[C@H](CO)[C@@H](O)[C@H]2O)c2ncnc(OC)c12 [Compound 1g, 5-Ethynyl-4-methoxy-7-(β-D-ribofuranosyl)-7H-pyrrolo[2,3-d]pyrimidine]	12.7	–	0.19	–	–
Cc1ncnc2c1c(-c1cc3ccccc3o1)cn2[C@@H]1O[C@H](CO)[C@@H](O)[C@H]1O [Compound 5f, 5-(Benzofuran-2-yl)-4-methyl-7-(β-D-ribofuranosyl)-7H-pyrrolo[2,3-d]pyrimidine]	> 20	–	> 20	–	–
COc1ncnc2c1ccn2[C@@H]1O[C@H](CO)[C@@H](O)[C@H]1O [RC1, reference compound]	> 20	–	> 20	–	–
CNc1ncnc2c1c(-c1cc3ccccc3o1)cn2[C@@H]1O[C@H](CO)[C@@H](O)[C@H]1O [Compound 3f, 5-(Benzofuran-2-yl)-4-methylamino-7-(β-D-ribofuranosyl)-7H-pyrrolo[2,3-d]pyrimidine]	> 20	203 to 206	8.95	–	–
CSc1ncnc2c1c(-c1ccsc1)cn2[C@@H]1O[C@H](CO)[C@@H](O)[C@H]1O [Compound 2d, 4-Methylsulfanyl-7-(β-D-ribofuranosyl)-5-(thiophen-3-yl)-7H-pyrrolo[2,3-d]pyrimidine]	> 15	192 to 193	4.59	–	–
CN(C)c1ncnc2c1ccn2[C@@H]1O[C@H](CO)[C@@H](O)[C@H]1O [RC4, reference compound]	1.81	–	0.87	–	–

SMILES	IC50 ([1]; HepG2, 72 h incubation) [µM]	melting point [°C]	IC50 ([2]; HL-60, 72 h incubation) [µM]	IC50 ([1]; HepG2, 72 h) [µM]	IC50 ([2]; HL-60, 72 h) [µM]
Cc1ncnc2c1ccn2[C@@H]1O[C@H](CO)[C@@H](O)[C@H]1O [RC5, 4-Methyl-7-(β-D-ribofuranosyl)-7H-pyrrolo[2,3-d]pyrimidine, reference compound]	–	–	–	0.06	0.02
Cc1ncnc2c1c(-c1ccco1)cn2[C@@H]1O[C@H](CO)[C@@H](O)[C@H]1O [Compound 5a, 5-(Furan-2-yl)-4-methyl-7-(β-D-ribofuranosyl)-7H-pyrrolo[2,3-d]pyrimidine]	0.3	–	0.21	–	–
C#Cc1cn([C@@H]2O[C@H](CO)[C@@H](O)[C@H]2O)c2ncnc(NC)c12 [Compound 3g, 5-Ethynyl-4-methylamino-7-(β-D-ribofuranosyl)-7H-pyrrolo[2,3-d]pyrimidine]	> 15	–	9.06	–	–
CSc1ncnc2c1ccn2[C@@H]1O[C@H](CO)[C@@H](O)[C@H]1O [RC2, reference compound]	–	–	–	> 20	7.19
CN(C)c1ncnc2c1c(-c1ccoc1)cn2[C@@H]1O[C@H](CO)[C@@H](O)[C@H]1O [Compound 4b, 4-Dimethylamino-5-(furan-3-yl)-7-(β-D-ribofuranosyl)-7H-pyrrolo[2,3-d]pyrimidine]	12.5	94 to 97	1.16	–	–
Cc1ncnc2c1c(-c1ccoc1)cn2[C@@H]1O[C@H](CO)[C@@H](O)[C@H]1O [Compound 5b, 5-(Furan-3-yl)-4-methyl-7-(β-D-ribofuranosyl)-7H-pyrrolo[2,3-d]pyrimidine]	5.32	–	> 15	–	–
CN(C)c1ncnc2c1c(-c1cccs1)cn2[C@@H]1O[C@H](CO)[C@@H](O)[C@H]1O [Compound 4c, 4-Dimethylamino-7-(β-D-ribofuranosyl)-5-(thiophen-2-yl)-7H-pyrrolo[2,3-d]pyrimidine]	> 20	–	11.8	–	–
CSc1ncnc2c1c(-c1cc3ccccc3o1)cn2[C@@H]1O[C@H](CO)[C@@H](O)[C@H]1O [Compound 2f, 5-(Benzofuran-2-yl)-4-methylsulfanyl-7-(β-D-ribofuranosyl)-7H-pyrrolo[2,3-d]pyrimidine]	> 20	–	1.21	–	–
CSc1ncnc2c1c(-c1ccccc1)cn2[C@@H]1O[C@H](CO)[C@@H](O)[C@H]1O [Compound 2e, 4-Methylsulfanyl-5-phenyl-7-(β-D-ribofuranosyl)-7H-pyrrolo[2,3-d]pyrimidine]	> 20	169 to 170	> 20	–	–
Cc1ncnc2c1c(-c1ccsc1)cn2[C@@H]1O[C@H](CO)[C@@H](O)[C@H]1O [Compound 5d, 4-Methyl-7-(β-D-ribofuranosyl)-5-(thiophen-3-yl)-7H-pyrrolo[2,3-d]pyrimidine]	4.72	–	0.35	–	–
CNc1ncnc2c1c(-c1ccccc1)cn2[C@@H]1O[C@H](CO)[C@@H](O)[C@H]1O [Compound 3e, 4-Methylamino-5-phenyl-7-(β-D-ribofuranosyl)-7H-pyrrolo[2,3-d]pyrimidine]	> 20	149 to 153	> 20	–	–
COc1ncnc2c1c(-c1ccccc1)cn2[C@@H]1O[C@H](CO)[C@@H](O)[C@H]1O [Compound 1e, 4-Methoxy-5-phenyl-7-(β-D-ribofuranosyl)-7H-pyrrolo[2,3-d]pyrimidine]	> 20	117 to 120	> 20	–	–
C#Cc1cn([C@@H]2O[C@H](CO)[C@@H](O)[C@H]2O)c2ncnc(SC)c12 [Compound 2g, 5-Ethynyl-4-methylsulfanyl-7-(β-D-ribofuranosyl)-7H-pyrrolo[2,3-d]pyrimidine]	> 15	–	0.05	–	–
CN(C)c1ncnc2c1c(-c1cc3ccccc3o1)cn2[C@@H]1O[C@H](CO)[C@@H](O)[C@H]1O [Compound 4f, 5-(Benzofuran-2-yl)-4-dimethylamino-7-(β-D-ribofuranosyl)-7H-pyrrolo[2,3-d]pyrimidine]	> 20	–	> 20	–	–
Cc1ncnc2c1c(-c1ccccc1)cn2[C@@H]1O[C@H](CO)[C@@H](O)[C@H]1O [Compound 5e, 4-Methyl-5-phenyl-7-(β-D-ribofuranosyl)-7H-pyrrolo[2,3-d]pyrimidine]	> 20	–	> 20	–	–
